According to patent US20230159484A1, “FLUORESCENT DYES HAVING HIGH STOKES SHIFT, ON THE BASIS OF BRIDGED BENZOPYRYLIUM SALTS” (DYOMICS GmbH, priority 2020, published 2023):

Experiments:
Type in all cases: physicochemical
[1] = Fluorescence quantum yield
Method: Preferably, the fluorescence quantum yield of a compound according to the invention is 0.1 to 0.95, more preferably 0.5 to 0.9. Fluorescence quantum yields are preferably determined at 25° C. in dilute aqueous or ethanolic solutions with an extinction of 0.1 using a Hamamatsu Absolute Photoluminescence Quantum Yield Measurement System C-9920, wherein the dilute aqueous solutions are preferably phosphate-buffered salt solutions (PBS buffer; about 100 mM sodium chloride and 100 mM total phosphate) and have a pH of 7.5. The compounds thus complement the already commercially available dyes with high Stokes Shift or represent better fluorescent alternatives.

[2] = Fluorescence emission (emission maximum)
Method: (§1) Depending on the basic structure and substitution, the absorption maxima lie in the entire range of visible light, with a focus at 500-530 nm. The compounds show a high Stokes shift in the range of 80 nm. The absorption is measured, for example, at 25° C. in aqueous or ethanolic solutions with an extinction of 1.0 using a Specord 205 from Analytik Jena, wherein the aqueous solutions are preferably phosphate-buffered salt solutions (PBS buffer; approx. 100 mM sodium chloride and 100 mM total phosphate) and have a pH of 7.5. For example, the emission is measured at 25° C. in dilute aqueous or ethanolic solutions with an extinction of 0.1 using a FP-6600 spectrofluorometer from Jasco, wherein the dilute aqueous solutions are preferably phosphate-buffered salt solutions (PBS buffer; about 100 mM sodium chloride and 100 mM total phosphate) and have a pH of 7.5.

[3] = UV-Vis absorption (absorption maximum, extinction coefficient)
Method: as §1

SMILES | QY ([1]; in PBS) | QY ([1]; in ethanol) | λem ([2]; in PBS) [nm] | λem ([2]; in ethanol) [nm] | ε ([3]; UV-Vis in PBS) | λmax ([3]; UV-Vis in PBS) [nm] | ε ([3]; UV-Vis in ethanol) | λmax ([3]; UV-Vis in ethanol) [nm]
CCN(CC)c1ccc2cc3c([o+]c2c1)C=C(NCCCCCC(=O)O)CC3(C)C.[Cl-] [Compound 3, 6-[[6-(diethylamino)-1,1-dimethyl-2H-xanthene-10-ium-3-yl]amino]hexanoic Acid Chloride Salt] | 0.58 | 0.82 | 570 | 575 | 39,200 l/mol*cm | 505 | 32,500 l/mol*cm | 510
CC1(C)CC(NCCCS(=O)(=O)[O-])=Cc2[o+]c3cc(N(CCCCCC(=O)O)CCCS(=O)(=O)[O-])ccc3cc21.[Na+] [Compound 5, 3-[[6-[5-carboxypentyl(3-sulfonatopropyl)amino]-1,1-dimethyl-2H-xanthene-10-ium-3-yl]amino]propane-1-sulfonate Sodium Salt] | 0.72 | 0.87 | 572 | 570 | 45,000 l/mol*cm | 505 | 49,800 l/mol*cm | 512
CCN(CCCCCC(=O)O)c1ccc2cc3c([o+]c2c1)C=C(NCCCS(=O)(=O)[O-])CC3(C)C [Compound 8, 3-[[6-[5-Carboxypentyl(ethyl)amino]-1,1-dimethyl-2H-xanthene-10-ium-3-yl]amino]propane-1-sulfonate] | 0.58 | 0.84 | 578 | 571 | 38,500 l/mol*cm | 509 | 41,600 l/mol*cm | 511
CN(C1=Cc2[o+]c3cc(N(CCCCCC(=O)O)CCCS(=O)(=O)[O-])ccc3cc2C(C)(C)C1)c1ccccc1 [Compound 9, 3-[5-carboxypentyl-[8,8-dimethyl-6-(N-methylanilino)-7H-xanthene-10-ium-3-yl]amino]propane-1-sulfonate] | 0,24 | 0.47 | 600 | 601 | 39,000 l/mol*cm | 523 | 41,000 l/mol*cm | 531
CN(C1=Cc2[o+]c3cc(N(CCCCCC(=O)O)CCCS(=O)(=O)[O-])ccc3cc2C(C)(C)C1)c1ccc(S(=O)(=O)[O-])cc1.[Na+] [Compound 10, 4-[[6-[5-carboxypentyl(3-sulfonatopropyl)amino]-1,1-dimethyl-2H-xanthene-10-ium-3-yl]-methyl-amino]benzenesulfonate sodium Salt] | 0.35 | 0.57 | 612 | 609 | 44,000 l/mol*cm | 527 | 48,000 l/mol*cm | 533
CCN(CCCCCC(=O)O)c1ccc2cc3c([o+]c2c1)C=C(N(C)c1ccccc1)CC3(C)C.[Cl-] [Compound 11, 6-[[8,8-dimethyl-6-(N-methylanilino)-7H-xanthene-10-ium-3-yl]-ethyl-amino]hexanoic Acid Chloride Salt] | 0.27 | 0.42 | 606 | 601 | 39,000 l/mol*cm | 526 | 44,000 l/mol*cm | 531
CCN(CCCCCC(=O)O)c1ccc2cc3c([o+]c2c1)C=C(/C=C1\C=CC=CN1)CC3(C)C.[Cl-] [Compound 29, 6-[[8,8-dimethyl-6-[(E)-1H-pyridine-2-ylidenemethyl]-7H-xanthene-10-ium-3-yl]-ethyl-amino]hexanoic Acid Chloride Salt] |  |  |  | 541 |  |  | 24,000 l/mol*cm | 434
CCN(CCCCCC(=O)O)c1ccc2cc3c([o+]c2c1)C=C(c1ccc(N(C)C)cc1)CC3(C)C.[Cl-] [Compound 30, 6-[[6-[4-(dimethylamino)phenyl]-8,8-dimethyl-7H-xanthene-10-ium-3-yl]-ethyl-amino]hexanoic Acid Chloride Salt] |  |  |  | 713 |  |  | 30,000 l/mol*cm | 664
CCN(CC)c1ccc2cc3c([o+]c2c1)C=C(C)CC3(C)C.[Cl-] [Compound 31] |  |  |  | 628 |  |  | 9,800 l/mol*cm | 538
CCN(CC)c1ccc2cc3c([o+]c2c1)C=C(/C=C/C=C1/N(CCCCCC(=O)O)c2ccc(S(=O)(=O)[O-])cc2C1(C)C)CC3(C)C [Compound 32, (2E)-1-(5-sarboxypentyl)-2-[(E)-3-[6-(diethylamino)-1,1-dimethyl-2H-xantheneium-3-yl]prop-2-enyliden]-3,3-dimethyl-indoline-5-sulfonate] |  |  | 788 | 795 | 75000 L/mol/cm | 755 | 143,600 l/mol*cm | 770
CCN(CC)c1ccc2c(c1)OC1=C/C(=C/C=C3/C(=O)N(CCCCCC(=O)O)C(=O)N(CCCS(=O)(=O)[O-])C3=O)CC(C)(C)C1=C2.[Na+] [Compound 33, 3-[(5Z)-3-(5-carboxypentyl)-5-[(2E)-2-[6-(diethylamino)-1,1-dimethyl-2H-xanthene-3-ylidene]ethylidene]-2,4,6-trioxo-hexahydropyrimidin-1-yl]propane-1-sulfonate Sodium Salt] |  |  |  | 719 |  |  | 67,000 l/mol*cm | 683
CCN(CC)c1ccc2c(c1)OC1=CC(=O)CC(C)(C)C1=C2 [Compound 34, 6-(diethylamino)-1,1-dimethyl-2H-xanthene-3-one] |  |  | 558 | 540 | 23000 L/mol/cm | 450 | 24,800 l/mol*cm | 440
CCN(CCCCCC(=O)O)c1ccc2c(c1)OC1=CC(=O)CC(C)(C)C1=C2 [Compound 35, 6-[(8,8-dimethyl-6-oxo-7H-xanthene-3-yl)-ethyl-amino]hexanoic Acid] |  |  | 559 | 540 | 24,200 l/mol*cm | 457 | 25,300 l/mol*cm | 441
CC1(C)CC(=O)C=C2Oc3cc(N(CCCCCC(=O)O)CCCS(=O)(=O)[O-])ccc3C=C21.[Na+] [Compound 37, 3-[5-carboxypentyl-(8,8-dimethyl-6-oxo-7H-xanthene-3-yl)amino]propane-1-sulfonate Sodium Salt] |  |  | 553 | 538 | 26,000 l/mol*cm | 454 | 27,000 l/mol*cm | 439
CC1(C)CC(=O)C(S(=O)(=O)[O-])=C2Oc3cc(OCCCCCC(=O)O)ccc3C=C21.[Na+] [Compound 40, 6-(5-carboxypentoxy)-1,1-dimethyl-3-oxo-2H-xanthene-4-sulfonate Sodium Salt] |  |  | 483 | 487 | 21,000 l/mol*cm | 407 | 19,500 l/mol*cm | 403
CC1=CC(C)(C)N(CCCCCC(=O)O)c2cc3c(cc21)C=C1C(=CC(=O)CC1(C)C)O3 [Compound 41, 6-(2,2,4,7,7-pentamethyl-9-oxo-8H-chromeno[3,2-g]quinolin-1-yl)hexanoic Acid] |  |  | 575 | 557 | 23,000 l/mol*cm | 460 | 24,000 l/mol*cm | 463
CC1=CC(C)(C)N(CCCCCC(=O)O)c2cc3c(cc21)C=C1C(=C(S(=O)(=O)[O-])C(=O)CC1(C)C)O3.[Na+] [Compound 42, 1-(5-carboxypentyl)-2,2,4,7,7-pentamethyl-9-oxo-8H-chromeno[3,2-g]quinoline-10-sulfonate Sodium Salt] |  |  | 578 | 559 | 28,000 l/mol*cm | 487 | 30,000 l/mol*cm | 473
CCN(CC)c1ccc2c(c1)OC1=Cc3[o+]c4cc(N(CC)CC)ccc4c(-c4ccccc4C(=O)O)c3C(C)(C)C1=C2.[Cl-] [Compound 46, 2-[3,9-bis(diethylamino)-13,13-dimethyl-chromeno[3,2-b]xanthene-5-ium-14-yl]benzoic Acid Chloride Salt] |  |  | 711 | 710 | 42000 L/mol/cm | 663 | 60,000 l/mol*cm | 664
CCN(CC)c1ccc2cc3c([o+]c2c1)C=C1Oc2cc(N(CC)CCCCCC(=O)O)ccc2C=C1C3(C)C.[Cl-] [Compound 47, 6-[[9-(diethylamino)-13,13-dimethyl-chromeno[3,2-b]xanthene-7-ium-3-yl]-ethyl-amino]hexanoic Acid Chloride Salt] |  |  | 710 | 713 | 37000 L/mol/cm | 670 | 80,300 l/mol*cm | 679
CCN(CCCCCC(=O)O)c1ccc2c(c1)OC1=Cc3[o+]c4cc(OC)ccc4cc3C(C)(C)C1=C2.[Cl-] [Compound 48, 6-[ethyl-(3-methoxy-13,13-dimethyl-chromeno[3,2-b]xanthene-5-ium-9-yl)amino]hexanoic Acid Chloride Salt] |  |  |  | 712 |  |  | 53,000 l/mol*cm | 654
